Reference: patent US20250275968A1, “INHIBITORS OF TAU PROTEINS” (DEUTSCHES ZENTRUM FÜR NEURODEGENERATIVE ERKRANKUNGEN E.V., priority 2022, published 2025)
Counter-ions that a name gives are not always drawn.

How the values were obtained:
15N-labeled 2N4R tau = molecular target: T1, 15N-labeled 2N4R tau (Homo sapiens, UniProt P10636); assay: SOFAST-HMQC NMR binding to monomeric tau; settings: for binding to tau (NMR spectroscopy): 18 μM tau, 50 mM sodium phosphate pH 6.8, 16 h at 37° C., spectra at 5° C.
T1 construct: Full-length 2N4R tau was incubated with Osimertinib mesylate
Excerpt: (A) Overlaid spectra of 2N4R tau with (black) and without (grey) a 100-fold molar excess of Osimertinib mesylate.
To obtain residue-specific information about the interaction between Tau and the compounds, ^1H-^15N correlation spectra of 2N4R Tau were monitored over the course of a titration with increasing amounts of compound. The ^1H-^15N SOFAST-HMQC (Reference: Schanda, P., Kupce, E. & Brutscher, B. SOFAST-HMQC experiments for recording two-dimensional heteronuclear correlation spectra of proteins within a few seconds. J. Biomol. NMR 33, 199-211 (2005)) spectra of [U-^15N]-Tau were acquired at 5° C. on a Bruker 800 MHz spectrometer equipped with a triple-resonance cryoprobe. Tau samples (18-25 μM) were prepared in NMR buffer containing 10% (v/v) D2O, and with compound concentrations that corresponded to Tau:compound mole ratios of 1:10 and 1:100. All NMR samples were incubated overnight (˜16 h) at 37° C. prior to spectral acquisition. Tau amide assignments were taken from a previous study (Reference: Mukrasch, M. et al. Structural polymorphism of 441-residue tau at single residue resolution. PLoS Biol. 7, e34 (2009)). However, because previous assignments were obtained using a Tau sample prepared in the presence of reducing agents, some amide resonances belonging to the repeat region of Tau (close to C291 and C322) were not unambiguously transferred to the SOFAST-HMQC spectra acquired under oxidizing conditions. Therefore, to obtain nearly complete backbone assignments in the repeat region, 3D HNCA, 3D HNCOCA, and 3D CBCACONH spectra were recorded for a [U-^13C,^15N]-4R Tau (K18 construct) sample prepared under the same buffer condition. The weighted, normalized chemical shift perturbations (CSP) were calculated as CSP=√[0.5 [(Δδ H)^2+(Δδ N)^2/25]. NMR signal intensity ratios, I/I0 (where I is the peak intensity of Tau amide backbone resonances in the presence of the compounds, and I0 is the peak intensity in the absence of the compounds), were calculated for each titration point.

2N4R Tau fibrils = molecular target: T2, 2N4R Tau fibrils (Homo sapiens, UniProt P10636); assay: Saturation transfer difference (STD) NMR with tau fibrils; assay type: binding; settings: 48-fold excess of compound, 100 mM NaCl, 2.5% (v/v) DMSO, pH 6.8, 37° C.
T2 construct: Full-length 2N4R tau was incubated with Osimertinib mesylate
Description: 2N4R Tau fibrils were prepared using the aggregation procedure described in the section in vitro assay 1 without Thioflavin T. The mole ratio of “free” compound to fibrils was 48:1 (corresponding to a total compound concentration of 250 μM and a total fibril concentration of 5 μM Tau). The NMR samples were prepared in 50 mM sodium phosphate with 100 mM NaCl and 2.5% (v/v) DMSO at pH 6.8. The spectra were recorded at 37° C. using a Bruker 700 MHz spectrometer equipped with a triple resonance cryoprobe. 1D ^1H-NMR STD spectra were acquired in an interleaved manner, alternating between off-resonance irradiation at 60 ppm and on-resonance irradiation at −2 ppm.

2N4R tau = molecular target: T3, 2N4R tau (Homo sapiens, UniProt P10636); assay: In vitro seeded aggregation/fibrillization assay of 2N4R tau (ThT fluorescence); assay type: biochemical; settings: for In vitro seeded aggregation/fibrillization of full-length tau (ThT fluorescence curves): 2N4R tau, various formulations
T3 construct: Full-length 2N4R tau was incubated with Osimertinib mesylate
Description: Aggregation of 2N4R Tau was performed using a previously published co-factor-free aggregation protocol, with a few modifications (Reference: Chakraborty, P. et al. Co-factor-free aggregation of tau into seeding-competent RNA-sequestering amyloid fibrils. Nat. Commun. 12, 4231 (2021)). Aggregation experiments used the Tau protein stock prepared in 25 mM HEPES pH 7.4, 1 mM TCEP. Stocks of compounds were prepared in aggregation buffer (25 mM HEPES, 10 mM KCl, 5 mM MgCl2, pH 7.2) or in DMSO (10 mM compound).
(§1) To prepare the Tau fibril seeds by de novo aggregation, 2N4R Tau at a monomer concentration of 25 μM was diluted in aggregation buffer. The working concentration of TCEP in the aggregation mixture was <25 μM after dilution of the stock. To this mixture, Thioflavin T (ThT) was added to a final concentration of 50 μM. A total volume of 100 μL of the Tau-ThT mixture was incubated in a well of a 96-well microplate (Greiner Bio-one), in the presence of two polytetrafluoroethylene beads. The microplate was subjected to a program implemented in a Tecan Spark plate reader that involved incubating at 37° C., with intervals of double orbital shaking and ThT fluorescence emission measurement. The excitation wavelength for ThT was set as 430 nm and the emission wavelength was 485 nm. Details of this plate reader program were published previously (Reference: Chakraborty, P. et al. Co-factor-free aggregation of tau into seeding-competent RNA-sequestering amyloid fibrils. Nat. Commun. 12, 4231 (2021)). […] The fibril-containing mixture collected from the microplate served as a seeding mixture for the subsequent aggregation assays.
Seeded aggregation assays were performed as described above but with 1.0% of the well volume occupied by the seeding mixture sonicated for 1 minute. The assays were performed in the presence and absence of compounds, and working concentrations ranged from 0-250 μM compound.
Analyses of the fluorescence curves were performed using Graphpad PRISM version 8. Fluorescence data were fit to a sigmoid function. The number of hours corresponding to half-maximal ThT Fluorescence™ as well as the span of fluorescence intensity (Span) were determined for each sigmoid curve. Statistically significant differences were determined by one-way ANOVA analysis with Dunnett's multiple comparison test or unpaired t-test.

2N4R tau aggregates = molecular target: T4, 2N4R tau aggregates (Homo sapiens, UniProt P10636); assay: Dissolution of preformed 2N4R tau fibrils (ThT fluorescence, TEM); assay type: biochemical; settings: compounds added to tau fibrils after about 40 h; tau monomer:Compound 1:3 and 1:10
T4 construct: Full-length 2N4R tau was incubated with Osimertinib mesylate
Description: (A) ThT fluorescence curves monitoring tau aggregation. tau fibrillization reached a saturation point within about 40 h, then compounds or buffer (Reference) were added to tau fibrils (tau monomer:Compound mole ratios 1:3 and 1:10). The experiment was performed in duplicate. […] Statistically significant differences were determined by one-way ANOVA with Dunnett's multiple comparison test. Significant differences corresponding to p≤0.0002(***) and p≤0.0001(****) are indicated. […] Scale bars are 500 nm. […] The dotted line corresponds to one standard deviation above the Reference value.
as §1
Fibril samples were negative stained using glow discharged 400 mesh carbon-coated copper grids. After staining using a 1% uranyl acetate solution, images were acquired on a Talos L120C transmission electron microscope (Thermo Fisher, Eindhoven, The Netherlands).

[1] = 2N4R tau^wt, mole ratios 1:3 and 1:10

T3 sequence (P10636 1-441 isoform P10636-8): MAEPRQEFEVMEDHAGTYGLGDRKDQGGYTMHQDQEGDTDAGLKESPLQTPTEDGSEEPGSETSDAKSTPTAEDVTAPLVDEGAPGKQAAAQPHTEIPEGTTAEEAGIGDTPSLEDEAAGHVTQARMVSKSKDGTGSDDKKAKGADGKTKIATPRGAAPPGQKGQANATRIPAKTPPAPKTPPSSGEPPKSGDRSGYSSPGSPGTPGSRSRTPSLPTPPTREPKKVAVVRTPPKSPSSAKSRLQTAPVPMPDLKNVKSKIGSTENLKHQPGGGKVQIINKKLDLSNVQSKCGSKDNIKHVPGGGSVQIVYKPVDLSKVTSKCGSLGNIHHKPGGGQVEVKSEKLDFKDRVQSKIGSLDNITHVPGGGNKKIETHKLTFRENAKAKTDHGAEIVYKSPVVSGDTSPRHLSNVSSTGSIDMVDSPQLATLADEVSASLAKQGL
T1 sequence (P10636 1-441 isoform P10636-8): as above
T4 sequence (P10636 1-441 isoform P10636-8): as above
T2 sequence (P10636 1-441 isoform P10636-8): as above

Row | binding to tau (NMR spectroscopy) (15N-labeled 2N4R tau) | NMR signal intensity ratio I/I0 (15N-labeled 2N4R tau; 16 h incubation at 37° C.) | STD effect with tau fibrils (fibril binding epitopes) (2N4R Tau fibrils) | In vitro seeded aggregation/fibrillization of full-length tau (ThT fluorescence curves) (2N4R tau) | dissolution of 2N4R tau aggregates (reduction of ThT fluorescence intensity) (2N4R tau aggregates) | normalized Tm (midpoint of aggregation curve) (2N4R tau; [1]) | inhibitory activity towards tau aggregation (2N4R tau; 2.5% (v/v) DMSO) | SMILES | normalized Span of ThT fluorescence (2N4R tau; [1])
1 | reveals binding | above 1 | Protons showing STD effects | inhibited in a dose-dependent manner | partially dissolve |  |  | C=CC(=O)Nc1cc(Nc2nccc(-c3c[nH]c4ccccc34)n2)c(OC)cc1N(C)CCN(C)C [Compound 3, N-[2-[[2-(dimethylamino)ethyl]methylamino]-5-[[4-(1H-indol-3-yl)-2-pyrimidinyl]amino]-4-methoxyphenyl]-2-Propenamide] | 
2 | reveals binding |  |  |  |  | do not show a clear dose-dependence |  | C=CC(=O)Nc1cc(Nc2nccc(-c3cn(C)c4ccccc34)n2)c(OC)cc1N(C)CCN(C)C [Osimertinib mesylate, N-[2-(2-Dimethylaminoethylmethylamino)-4-methoxy-5-[[4-(1-methylindol-3-yl)pyrimidin-2-yl]amino]phenyl]prop-2-enamide Mesylate Salt] | statistically lower normalized Span values
3 |  |  | Protons showing STD effects | inhibited in a dose-dependent manner | partially dissolve |  | strong inhibitory activity | C=CC(=O)Nc1cc(Nc2nccc(-c3cn(C)c4ccccc34)n2)c(OC)cc1N(C)CCN(C)C [Osimertinib, N-[2-(2-Dimethylaminoethylmethylamino)-4-methoxy-5-[[4-(1-methylindol-3-yl)pyrimidin-2-yl]amino]phenyl]prop-2-enamide] | 
